Numbering of substitutions follows the chain as printed. Where a name gives a salt, the structure may show the parent alone. Read-outs that look alike come from different tables or passages of the source.
Columns and labels:
[1] = single oral doses; cited from earlier work
[2] = test system: incidence of breast cancer; details: large study of use to prevent and treat osteoporosis; cited from earlier work
[3] = test system: estrogen receptors; details: preclinical data; cited from earlier work
[4] = test system: renal DNA; details: in vivo; cited from earlier work
[5] = test system: DNA; details: cited from earlier work
[6] = test system: renal cancer; details: hamster, in vivo; cited from earlier work
[7] = test system: CYP1B1 mRNA; details: primary cultures of normal human epidermal keratinocytes, 24-hour treatment; cited from earlier work
[8] = cited from earlier work; for time to steady state concentrations after initiation of therapy: in vivo; for average peak plasma concentration: single oral dose of 20 mg tamoxifen
[9] = test system: rat mammary carcinoma induced by dimethylbenzanthracene (DMBA); details: cited from earlier work
[10] = test system: breast cancer incidence; details: women at increased risk of the disease; cited from earlier work
[11] = cited from earlier work
[12] = test system: DNA; details: cited from earlier work; remark: listed apart in the source
[13] = test system: COMT; details: cited from earlier work
[14] = test system: CYP1B1; details: cited from earlier work
[15] = test system: CYP1A1
[16] = 10 mg tamoxifen twice daily for 3 months, patients
[17] = 20 mg tamoxifen once daily for 3 months

In the case of `O=C(c1ccc(OCCN2CCCCC2)cc1)c1c(-c2ccc(O)cc2)sc2cc(O)ccc12` [Raloxifene], the apparent oral clearance [1] is given as 44.1 L/kg per hour, the “incidence of breast cancer” value [2] is given as “reduce the incidence of breast cancer” and the “estrogen receptor action in uterine and breast tissues” value [3] is given as “estrogen antagonist”.

In the case of `C[C@]12CC[C@@H]3c4ccc(O)c(O)c4CC[C@H]3[C@@H]1CC[C@@H]2O` [4-OHE2], the “levels of oxidized base 8-hydroxy-deoxyguanosine, oxidative DNA damage” value (“levels … oxidative DNA damage” below) [4] is given as “significantly increased”, the DNA single-strand breaks [5] is given as “induced DNA single-strand breaks” and the “induction of renal cancer” value [6] is given as “induced renal cancer”.

In the case of `Clc1cc2c(cc1Cl)Oc1cc(Cl)c(Cl)cc1O2` [TCDD, 2,3,7,8-tetrachlorodibenzo-p-dioxin], the “increase of CYP1B1 mRNA levels” value [7] is listed as “approximately 100 fold”.

In the case of `CC/C(=C(\c1ccccc1)c1ccc(OCCN(C)C)cc1)c1ccccc1` [Tamoxifen, reference compound], the “average steady-state plasma concentration” value [8, 16] is given as 120 ng/mL, the “average steady-state plasma concentration” value [8, 17] is given as 122 ng/mL and the “time to steady state concentrations after initiation of therapy” value [8] is given as “about 4 weeks”. For the same molecule, the “average peak plasma concentration” value [8] was 40 ng/mL, the “time of peak plasma concentration after dosing” value ([8]; single oral dose of 20 mg) was “approximately 5 hours” and the “induction of rat mammary carcinoma induced by DMBA” value ([9]; rat) was “inhibits”. The “regression of DMBA-induced tumors in situ” value ([9]; rats) was “causes the regression” and the “reduction of breast cancer incidence” value [10] was 49%.

For `C[C@]12CC[C@@H]3c4ccc(O)c(O)c4CC[C@H]3[C@@H]1CCC2=O` [4-OHE1], the “levels … oxidative DNA damage” value [4] is listed as “significantly increased” and the “induction of renal cancer” value [6] is listed as “induced renal cancer”.

For `C[C@]12CC[C@@H]3c4cc(O)c(O)cc4CC[C@H]3[C@@H]1CCC2=O` [2-OHE1], the “induction of renal cancer” value [6] is given as “not”.

For `C[C@]12CC[C@@H]3c4cc(O)c(O)cc4CC[C@H]3[C@@H]1CC[C@@H]2O` [2-OHE2], the “levels … oxidative DNA damage” value [4] is listed as “did not cause oxidative DNA damage”, the DNA single-strand breaks [5] is listed as “negligible effect” and the “induction of renal cancer” value [6] is listed as “not”.

In the case of `O=C(c1ccc(OCCN2CCCCC2)cc1)c1c(-c2ccc(O)cc2)sc2cc(O)ccc12` [Raloxifene HCl, methanone, [6-hydroxy-2-(4-hydroxyphenyl)benzo[b]thien-3-yl]-[4-[2-(1-piperidinyl)ethoxy]phenyl]-hydrochloride], the solubility in water [11] is listed as “very slightly soluble”.

For `CC/C(=C(\c1ccccc1)c1ccc(OCCNC)cc1)c1ccccc1` [N-desmethyl tamoxifen], the “average steady-state plasma concentration” value [8, 16] is listed as 336 ng/mL, the “average steady-state plasma concentration” value [8, 17] is listed as 353 ng/mL and the “time to steady state concentrations after initiation of therapy” value [8] is listed as “about 8 weeks”. The “average peak plasma concentration” value [8] was 15 ng/mL and the half-life ([8]; suggested by time to steady state) was “approximately 14 days”.

In the case of `C[C@]12CC[C@@H]3C4=C(CC[C@H]3[C@@H]1CC[C@@H]2O)C(=O)C(=O)C=C4` [E2-3,4Q], the “levels of depurinating DNA adducts” value [12] is given as “two to three orders of magnitude higher”.

In the case of `C[C@]12CC[C@@H]3C4=C(CC[C@H]3[C@@H]1CCC2=O)C(=O)C(=O)C=C4` [E1-3,4Q], the “levels of depurinating DNA adducts” value [12] is given as “two to three orders of magnitude higher”.

B1: 108Val (wt): wild-type COMT enzyme (protein, UniProt P21964 1-271, looked up)
Catechol O-methyltransferase: MPEAPPLLLAAVLLGLVLLVVLLLLLRHWGWGLCLIGWNEFILQPIHNLLMGDTKEQRILNHVLQHAEPGNAQSVLEAIDTYCEQKEWAMNVGDKKGKIVDAVIQEHQPSVLLELGAYCGYSAVRMARLLSPGARLITIEINPDCAAITQRMVDFAGVKDKVTLVVGASQDIIPQLKKKYDVDTLDMVFLDHWKDRYLPDTLLLEECGLLRKGTVLLADNVICPGAPDFLAHVRGSSCFECTHYQSFLEYREVVDGLEKAIYKGPGSEAGP
In the case of B1, the Km ([13]; reaction 2-OHE2 → 2-MeOE2, COMT) is listed as 117 µM, the Km ([13]; reaction 2-OHE2 → 2-OH-3-MeOE2, COMT) is listed as 51 µM and the Km ([13]; reaction 4-OHE2 → 4-MeOE2, COMT) is listed as 24 µM.

B2: 48Gly-119Ala-432Val-453Asn: CYP1B1 variant enzyme (protein, UniProt Q16678 1-543, looked up, variant R48G)
Cytochrome P450 1B1: MGTSLSPNDPWPLNPLSIQQTTLLLLLSVLATVHVGQRLLRQRRRQLGSAPPGPFAWPLIGNAAAVGQAAHLSFARLARRYGDVFQIRLGSCPIVVLNGERAIHQALVQQGSAFADRPAFASFRVVSGGRSMAFGHYSEHWKVQRRAAHSMMRNFFTRQPRSRQVLEGHVLSEARELVALLVRGSADGAFLDPRPLTVVAVANVMSAVCFGCRYSHDDPEFRELLSHNEEFGRTVGAGSLVDVMPWLQYFPNPVRTVFREFEQLNRNFSNFILDKFLRHCESLRPGAAPRDMMDAFILSAEKKAAGDSHGGGARLDLENVPATITDIFGASQDTLSTALQWLLLLFTRYPDVQTRVQAELDQVVGRDRLPCMGDQPNLPYVLAFLYEAMRFSSFVPVTIPHATTANTSVLGYHIPKDTVVFVNQWSVNHDPLKWPNPENFDPARFLDKDGLINKDLTSRVMIFSVGKRRCIGEELSKMQLFLFISILAHQCDFRANPNEPAKMNFSYGLTIKPKSFKVNVTLRESMELLDSAVQNLQAKETCQ
For B2, the Km ([14]; reaction E2 → 2-OHE2, CYP1B1) is given as 12 µM and the Km ([14]; reaction E2 → 4-OHE2, CYP1B1) is given as 6.6 µM.

B3: 48Gly-119Ser-432Val-453Asn: CYP1B1 variant enzyme (protein, UniProt Q16678 1-543, looked up, variant R48G A119S)
Cytochrome P450 1B1: B2 Cytochrome P450 1B1 with A119S
In the case of B3, the Km ([14]; reaction E2 → 2-OHE2, CYP1B1) is listed as 13 µM and the Km ([14]; reaction E2 → 4-OHE2, CYP1B1) is listed as 5.5 µM.

B4: 48Arg-119Ala-432Val-453Asn (wt): wild-type CYP1B1 enzyme (protein, UniProt Q16678 1-543, looked up)
Cytochrome P450 1B1: B2 Cytochrome P450 1B1 with G48R
For B4, the Km ([14]; reaction E2 → 2-OHE2, CYP1B1) is listed as 24 µM and the Km ([14]; reaction E2 → 4-OHE2, CYP1B1) is listed as 14 µM.

B5: 48Arg-119Ser-432Val-453Asn: CYP1B1 variant enzyme (protein, UniProt Q16678 1-543, looked up, variant A119S)
Cytochrome P450 1B1: B2 Cytochrome P450 1B1 with G48R, A119S
For B5, the Km ([14]; reaction E2 → 2-OHE2, CYP1B1) is listed as 19 µM and the Km ([14]; reaction E2 → 4-OHE2, CYP1B1) is listed as 9.3 µM.

B6: 48Arg-119Ala-432Val-453Ser: CYP1B1 variant enzyme (protein, UniProt Q16678 1-543, looked up, variant N453S)
Cytochrome P450 1B1: B2 Cytochrome P450 1B1 with G48R, N453S
In the case of B6, the Km ([14]; reaction E2 → 2-OHE2, CYP1B1) is listed as 49 µM and the Km ([14]; reaction E2 → 4-OHE2, CYP1B1) is listed as 21 µM.

B7: 48Gly-119Ser-432Val-453Ser: CYP1B1 variant enzyme (protein, UniProt Q16678 1-543, looked up, variant R48G A119S N453S)
Cytochrome P450 1B1: B2 Cytochrome P450 1B1 with A119S, N453S
In the case of B7, the Km ([14]; reaction E2 → 2-OHE2, CYP1B1) is listed as 34 µM and the Km ([14]; reaction E2 → 4-OHE2, CYP1B1) is listed as 15 µM.

B8: 48Gly-119Ala-432Val-453Ser: CYP1B1 variant enzyme (protein, UniProt Q16678 1-543, looked up, variant R48G N453S)
Cytochrome P450 1B1: B2 Cytochrome P450 1B1 with N453S
In the case of B8, the Km ([14]; reaction E2 → 2-OHE2, CYP1B1) is listed as 75 µM and the Km ([14]; reaction E2 → 4-OHE2, CYP1B1) is listed as 28 µM.

B9: 48Arg-119Ser-432Val-453Ser: CYP1B1 variant enzyme (protein, UniProt Q16678 1-543, looked up, variant A119S N453S)
Cytochrome P450 1B1: B2 Cytochrome P450 1B1 with G48R, A119S, N453S
For B9, the Km ([14]; reaction E2 → 2-OHE2, CYP1B1) is listed as 36 µM and the Km ([14]; reaction E2 → 4-OHE2, CYP1B1) is listed as 17 µM.

B10: 461Thr-462Ile (wt*): purified recombinant wild-type CYP1A1 enzyme (protein, UniProt P04798 1-512, looked up)
Cytochrome P450 1A1: MLFPISMSATEFLLASVIFCLVFWVIRASRPQVPKGLKNPPGPWGWPLIGHMLTLGKNPHLALSRMSQQYGDVLQIRIGSTPVVVLSGLDTIRQALVRQGDDFKGRPDLYTFTLISNGQSMSFSPDSGPVWAARRRLAQNGLKSFSIASDPASSTSCYLEEHVSKEAEVLISTLQELMAGPGHFNPYRYVVVSVTNVICAICFGRRYDHNHQELLSLVNLNNNFGEVVGSGNPADFIPILRYLPNPSLNAFKDLNEKFYSFMQKMVKEHYKTFEKGHIRDITDSLIEHCQEKQLDENANVQLSDEKIINIVLDLFGAGFDTVTTAISWSLMYLVMNPRVQRKIQEELDTVIGRSRRPRLSDRSHLPYMEAFILETFRHSSFVPFTIPHSTTRDTSLKGFYIPKGRCVFVNQWQINHDQKLWVNPSEFLPERFLTPDGAIDKVLSEKVIIFGMGKRKCIGETIARWEVFLFLAILLQRVEFSVPLGVKVDMTPIYGLTMKHACCEHFQMQLRS
Molecule B10 has a Km [15] of 17 µM.

B11: 461Asn-462Val: purified recombinant CYP1A1 variant 461Asn-462Val (protein, UniProt P04798 1-512, looked up, variant T461N I462V)
Cytochrome P450 1A1: B10 Cytochrome P450 1A1 with T461N, I462V
Work on B11 yielded a Km [15] of 23 µM.

B12: 461Thr-462Val: purified recombinant CYP1A1 variant 462Ile→Val (protein, UniProt P04798 1-512, looked up, variant I462V)
Cytochrome P450 1A1: B10 Cytochrome P450 1A1 with I462V
In the case of B12, the Km [15] is reported as 18 µM.

B13: 461Asn-462Ile: purified recombinant CYP1A1 variant 461Thr→Asn (protein, UniProt P04798 1-512, looked up, variant T461N)
Cytochrome P450 1A1: B10 Cytochrome P450 1A1 with T461N
B13 gave a Km [15] of 23 µM.

Source: patent US20090068653A1, “BIOCHEMICAL AND GENETIC ANALYSIS FOR PREDICTION OF BREAST CANCER RISK” (priority 2006, published 2009)
